# Laboratory results reported in ChEMBL document CHEMBL6109153, “Development of Membrane-Targeting Osthole Derivatives Containing Pyridinium Quaternary Ammonium Moieties with Potent Anti-Methicillin-Resistant Staphylococcus aureus Properties” (J Med Chem, 2025).
# Assays:
# Staphylococcus aureus [1] = assay: Antibacterial activity against methicillin-resistant Staphylococcus aureus M21 incubated for 16 to 20 hrs by broth microdilution method; format: functional; conditions: time 16-20 hrs
# Staphylococcus aureus [2] = assay: Antibacterial activity against methicillin-resistant Staphylococcus aureus M20 incubated for 16 to 20 hrs by broth microdilution method; format: functional; conditions: time 16-20 hrs
# Staphylococcus aureus [3] = assay: Antibacterial activity against methicillin-resistant Staphylococcus aureus M13 incubated for 16 to 20 hrs by broth microdilution method; format: functional; conditions: time 16-20 hrs
# Staphylococcus aureus [4] = assay: Antibacterial activity against methicillin-resistant Staphylococcus aureus M23 incubated for 16 to 20 hrs by broth microdilution method; format: functional; conditions: time 16-20 hrs
# Staphylococcus aureus [5] = assay: Antibacterial activity against Staphylococcus aureus ATCC 29213 incubated for 16 to 20 hrs by broth microdilution method; format: functional; conditions: time 16-20 hrs
# Staphylococcus aureus [6] = assay: Antibacterial activity against methicillin-resistant Staphylococcus aureus M17 incubated for 16 to 20 hrs by broth microdilution method; format: functional; conditions: time 16-20 hrs
# Staphylococcus aureus [7] = assay: Antibacterial activity against methicillin-resistant Staphylococcus aureus M11 incubated for 16 to 20 hrs by broth microdilution method; format: functional; conditions: time 16-20 hrs
# [8] = Hemolytic activity against sheep erythrocytes; format: toxicity, cell-based, Ovis aries, Erythrocyte
# Staphylococcus aureus [9] = assay: Antibacterial activity against methicillin-resistant Staphylococcus aureus M22 incubated for 16 to 20 hrs by broth microdilution method; format: functional; conditions: time 16-20 hrs
# Staphylococcus aureus [10] = assay: Antibacterial activity against methicillin-resistant Staphylococcus aureus M16 incubated for 16 to 20 hrs by broth microdilution method; format: functional; conditions: time 16-20 hrs
# Escherichia coli = assay: Antibacterial activity against Escherichia coli ATCC 25922 incubated for 16 to 20 hrs by broth microdilution method; format: functional; conditions: time 16-20 hrs
# Staphylococcus aureus [11] = assay: Antibacterial activity against methicillin-resistant Staphylococcus aureus M14 incubated for 16 to 20 hrs by broth microdilution method; format: functional; conditions: time 16-20 hrs
# Staphylococcus aureus [12] = assay: Antibacterial activity against methicillin-resistant Staphylococcus aureus M12 incubated for 16 to 20 hrs by broth microdilution method; format: functional; conditions: time 16-20 hrs
Compound,MIC (Staphylococcus aureus [1]) [µg/mL],MIC (Staphylococcus aureus [2]) [µg/mL],MIC (Staphylococcus aureus [3]) [µg/mL],MIC (Staphylococcus aureus [4]) [µg/mL],MIC (Staphylococcus aureus [5]) [µg/mL],MIC (Staphylococcus aureus [6]) [µg/mL],MIC (Staphylococcus aureus [7]) [µg/mL],HC50 [8] [µg/mL],MIC (Staphylococcus aureus [9]) [µg/mL],MIC (Staphylococcus aureus [10]) [µg/mL],MIC (Escherichia coli) [µg/mL],MIC (Staphylococcus aureus [11]) [µg/mL],MIC (Staphylococcus aureus [12]) [µg/mL]
CCCNC(=O)C[n+]1ccc(SCCCCOc2ccc3ccc(=O)oc3c2CC=C(C)C)cc1.[Br-],2,8,16,8,16,8,4,> 160,2,8,> 128,8,16
CC(C)=CCc1c(OCCCCSc2cc[n+](CC(=O)N(C)c3ccccc3)cc2)ccc2ccc(=O)oc12.[Br-],8,2,8,16,4,16,2,> 160,8,4,> 128,4,8
CCCCCNC(=O)C[n+]1ccc(SCCCOc2ccc3ccc(=O)oc3c2CC=C(C)C)cc1.[Br-],2,2,8,8,2,2,2,> 160,2,4,64,2,4
CC(C)=CCc1c(OCCCCCSc2cc[n+](CC(=O)N(C)c3ccccc3)cc2)ccc2ccc(=O)oc12.[Br-],4,2,4,2,2,8,2,> 160,4,2,> 128,2,4
CCCNC(=O)C[n+]1ccc(SCCCOc2ccc3ccc(=O)oc3c2CC=C(C)C)cc1.[Br-],8,8,32,8,8,16,8,> 160,8,8,> 128,8,16
CCCCN(CCCC)C(=O)C[n+]1ccc(SCCCCOc2ccc3ccc(=O)oc3c2CC=C(C)C)cc1.[Br-],0.5,0.5,2,0.5,1,1,1,> 160,0.5,1,> 128,1,2
CCCCCCNC(=O)C[n+]1ccc(SCCCCOc2ccc3ccc(=O)oc3c2CC=C(C)C)cc1.[Br-],2,1,2,2,1,1,1,> 160,2,2,32,1,2
CC(C)=CCc1c(OCCCSc2cc[n+](CC(=O)N(CC(C)C)CC(C)C)cc2)ccc2ccc(=O)oc12.[Br-],2,2,4,2,2,4,1,> 160,2,2,> 128,2,4
CC(C)=CCc1c(OCCCCCSc2cc[n+](CC(=O)N(C(C)C)C(C)C)cc2)ccc2ccc(=O)oc12.[Br-],2,2,4,2,2,2,1,> 160,2,4,> 128,2,4
CC(C)=CCc1c(OCCCSc2cc[n+](CC(=O)N(C(C)C)C(C)C)cc2)ccc2ccc(=O)oc12.[Br-],4,2,8,4,4,4,2,> 160,4,4,> 128,2,8
CCCCCCNC(=O)C[n+]1ccc(SCCCOc2ccc3ccc(=O)oc3c2CC=C(C)C)cc1.[Br-],4,2,4,2,1,4,2,> 160,4,4,64,2,4
CC(C)=CCc1c(OCCCCSc2cc[n+](CC(=O)N(C(C)C)C(C)C)cc2)ccc2ccc(=O)oc12.[Br-],2,1,4,2,2,2,1,> 160,2,2,> 128,2,4
CCCCNC(=O)C[n+]1ccc(SCCCOc2ccc3ccc(=O)oc3c2CC=C(C)C)cc1.[Br-],4,4,8,8,2,8,4,> 160,4,4,> 128,4,8
CCCN(CCC)C(=O)C[n+]1ccc(SCCCOc2ccc3ccc(=O)oc3c2CC=C(C)C)cc1.[Br-],8,4,16,8,4,8,4,> 160,8,8,128,8,16
C[C@@H](O)[C@H]1C(=O)N2C(C(=O)O)=C(S[C@@H]3CN[C@H](C(=O)N(C)C)C3)[C@H](C)[C@H]12 [MEROPENEM],–,–,–,–,–,–,–,–,–,–,0.063,–,–
COc1ccc2ccc(=O)oc2c1CC=C(C)C [OSTHOLE],> 64,64,> 64,> 64,> 64,64,> 64,> 80,64,64,> 64,64,64
CCCCCNC(=O)C[n+]1ccc(SCCCCOc2ccc3ccc(=O)oc3c2CC=C(C)C)cc1.[Br-],4,1,4,1,4,2,2,> 160,4,2,> 128,1,4
CCCCNC(=O)C[n+]1ccc(SCCCCCOc2ccc3ccc(=O)oc3c2CC=C(C)C)cc1.[Br-],1,1,2,2,2,2,1,> 160,1,2,> 128,1,2
CCCCN(CCCC)C(=O)C[n+]1ccc(SCCCCCOc2ccc3ccc(=O)oc3c2CC=C(C)C)cc1.[Br-],1,0.5,1,1,1,2,0.5,> 160,1,1,> 128,0.5,1
CC(C)=CCc1c(OCCCCCSc2cc[n+](CC(=O)N(CC(C)C)CC(C)C)cc2)ccc2ccc(=O)oc12.[Br-],2,8,8,8,1,2,8,> 160,2,16,> 128,8,8
CC(C)=CCc1c(OCCCCCSc2cc[n+](CC(=O)N3CCOCC3)cc2)ccc2ccc(=O)oc12.[Br-],32,16,64,32,32,32,16,> 160,32,16,> 128,16,32
CCCN(CCC)C(=O)C[n+]1ccc(SCCCCOc2ccc3ccc(=O)oc3c2CC=C(C)C)cc1.[Br-],2,1,8,2,2,2,2,> 160,2,2,> 128,2,4
CCCNC(=O)C[n+]1ccc(SCCCCCOc2ccc3ccc(=O)oc3c2CC=C(C)C)cc1.[Br-],8,2,8,4,2,8,2,190,8,2,> 128,2,8
